Values belong to the molecule of their own block, whether it stands above or below them.
Assays:
BT4246-SusD-like [1] = molecular target: T1, BT4246-SusD-like (Bacteroides thetaiotaomicron, UniProt Q89ZX5); experiment: X-ray crystal structure, […] Å; format: binding; design: gene BT_4246; residues 25-642, His-tag removed by TEV protease, from E. coli (crystal); conditions: crystals soaked in 4% PGMIII O-glycan oligosaccharides; only the terminal Gal of an undefined oligosaccharide is modelled, not free galactose
T1 sequence (Q89ZX5 25-642): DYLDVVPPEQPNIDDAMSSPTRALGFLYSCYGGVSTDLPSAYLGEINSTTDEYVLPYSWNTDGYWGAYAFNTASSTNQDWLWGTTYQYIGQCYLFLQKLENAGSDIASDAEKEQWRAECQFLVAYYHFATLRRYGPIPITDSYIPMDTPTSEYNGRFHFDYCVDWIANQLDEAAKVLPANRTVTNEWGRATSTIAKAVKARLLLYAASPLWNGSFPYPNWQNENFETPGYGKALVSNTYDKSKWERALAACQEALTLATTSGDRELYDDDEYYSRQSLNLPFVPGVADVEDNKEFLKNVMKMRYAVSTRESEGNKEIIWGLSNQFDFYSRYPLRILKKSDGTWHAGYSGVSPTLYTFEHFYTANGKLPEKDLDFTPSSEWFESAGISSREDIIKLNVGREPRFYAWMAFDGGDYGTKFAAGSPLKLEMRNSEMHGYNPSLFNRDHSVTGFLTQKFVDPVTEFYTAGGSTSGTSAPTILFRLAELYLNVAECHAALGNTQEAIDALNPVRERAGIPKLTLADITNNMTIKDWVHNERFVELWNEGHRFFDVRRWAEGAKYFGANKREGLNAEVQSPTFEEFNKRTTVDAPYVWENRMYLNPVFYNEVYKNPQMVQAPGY

BT4244-CBM32 = molecular target: T2, BT4244-CBM32 (Bacteroides thetaiotaomicron, UniProt Q89ZX7); experiment: ITC; format: binding; conditions: 20 mM Tris-HCl pH 7.5, 25 °C; single-site model
T2 construct: gene BT_4244
T2 sequence (Q89ZX7 145-285 limits assumed): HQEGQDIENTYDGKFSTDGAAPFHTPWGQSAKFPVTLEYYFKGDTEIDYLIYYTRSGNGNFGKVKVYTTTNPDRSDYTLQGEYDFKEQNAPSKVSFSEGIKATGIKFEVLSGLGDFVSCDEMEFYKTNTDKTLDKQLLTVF

BT4245-SGBP = molecular target: T3, BT4245-SGBP (Bacteroides thetaiotaomicron, UniProt Q89ZX6); experiment: ITC; format: binding; conditions: 20 mM Tris-HCl pH 7.5, 25 °C; single-site model
T3 construct: gene BT_4245; full-length mature protein, signal peptide removed, His-tagged, from E. coli
T3 sequence (Q89ZX6 21-430): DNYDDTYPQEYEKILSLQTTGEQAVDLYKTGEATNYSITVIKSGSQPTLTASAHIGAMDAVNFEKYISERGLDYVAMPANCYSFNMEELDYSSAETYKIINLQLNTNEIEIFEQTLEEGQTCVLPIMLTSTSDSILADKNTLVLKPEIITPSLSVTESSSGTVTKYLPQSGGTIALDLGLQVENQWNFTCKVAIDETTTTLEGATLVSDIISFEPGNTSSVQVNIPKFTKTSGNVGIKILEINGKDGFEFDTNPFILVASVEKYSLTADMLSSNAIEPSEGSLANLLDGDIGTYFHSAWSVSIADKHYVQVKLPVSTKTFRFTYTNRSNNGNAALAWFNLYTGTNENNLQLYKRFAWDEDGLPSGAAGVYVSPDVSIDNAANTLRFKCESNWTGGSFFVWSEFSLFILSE

BT4246-SusD-like [2] = molecular target: T1, BT4246-SusD-like; experiment: ITC; format: binding; design: gene BT_4246; mature form, signal peptide removed, His-tagged, from E. coli (ITC); conditions: 20 mM Tris-HCl pH 7.5, 25 °C; single-site model
[3] = substrate: CC(=O)N[C@H]1[C@@H](Oc2ccc([N+](=O)[O-])cc2)O[C@H](CO)[C@H](O)[C@@H]1O; experiment: 4-nitrophenol release at A400; format: biochemical, Bacteroides thetaiotaomicron; conditions: 20 mM MOPS pH 7.0, 37 °C, 0.4 µM enzyme
Experimental: 4-nitrophenol release at A400 on BT4243-GH109 | between GalNAc and serine in Tn antigen as well as PNP-α-GalNAc | enzyme (final) was added to substrate (PNP-α-GalNAc or PNP-β-GalNAc, respectively)

Molecule: OC[C@H]1OC(O)[C@H](O)[C@@H](O)[C@H]1O (some centres unmarked) [terminal Gal from a mucin O-glycan oligosaccharide]
X-ray crystal structure, 1.8 Å (BT4246-SusD-like [1]): In the resulting structure, unambiguous electron density was observed for a β-linked Gal

Molecule: OC[C@H]1OC(O)[C@H](O)[C@@H](O)[C@H]1O (some centres unmarked) [Gal]
Ka (BT4244-CBM32): 0.16 (±0.01) × 10^4
Ka (BT4245-SGBP): > 0.1 × 10^4

Ka (BT4244-CBM32): 0.20 (±0.01) × 10^4
Ka (BT4246-SusD-like [2]): 0.45 (±0.03) × 10^4
Molecule: CC(=O)N[C@H]1C(O)O[C@H](CO)[C@H](O)[C@@H]1O[C@@H]1O[C@H](CO)[C@H](O)[C@H](O)[C@H]1O (some centres unmarked) [core 1 disaccharide]

Ka (BT4246-SusD-like [2]): 0.13 (±0.07) × 10^4
Molecule: CC(=O)N[C@H]1C(O)O[C@H](CO)[C@@H](O)[C@@H]1O[C@@H]1O[C@H](CO)[C@H](O)[C@H](O)[C@H]1O (some centres unmarked) [lacto-N-biose]

Molecule: CC(=O)N[C@H]1C(O)O[C@H](CO)[C@H](O)[C@@H]1O (some centres unmarked) [GalNAc]
Ka (BT4244-CBM32): 0.40 (±0.03) × 10^4
Ka (BT4245-SGBP): 1.20 (±0.2) × 10^4

Ka (BT4244-CBM32): 0.23 (±0.00) × 10^4
Molecule: OC[C@H]1O[C@@H](O[C@H]2[C@H](O)[C@@H](O)C(O)O[C@@H]2CO)[C@H](O)[C@@H](O)[C@H]1O (some centres unmarked) [lactose]

B1: BT4243-GH109 (Bacteroides thetaiotaomicron VPI-5482) (protein)
chain: QKTKAKFSPIKVETPARPANQQDVIQLVTPKLETVRVGFIGLGMRGPGAVERWTHIPGTQIVALCDLLPERVENAQKILEKAGLPKAASYAGDEKAWKKLCERDDIDVVYIATDWKHHADMGVYAMEHGKHVAIEVPAAMTLDEIWKLINTSEKTRKHCMQLENCVYDFFELTSLNMAQQGVFGEVLHVEGAYIHNLEDFWPYYWNNWRMDYNQKHRGDVYATHGMGPACQVLNIHRGDRMKTLVAMDTKAVNGPAYIKKSTGKEVKDFQNGDQTTTLIRTENGKTMLIQHNVMTPRPYSRMYQVVGADGYASKYPIEEYCLRPTQVDSNDVPNHEKLNAHGSVSEDVKKALMAKYKDPIHKELEETAKKVGGHGGMDYIMDYRLVYCLRNGLPLDMDVYDLAEWCCMAELTRLSIENGSAPVEVPDFTRGGWNKVQGYRHAFAE
notes: mature form, signal peptide removed, His-tagged, from E. coli
Km [3]: 0.03 (±0.005) mM
kcat [3]: 2.1 (±0.3) s-1

Source: PMC11992087, “A Bacteroides thetaiotaomicron genetic locus encodes activities consistent with mucin O-glycoprotein processing and N-acetylgalactosamine metabolism” (Nature Communications, 2025)
